{"source": "patent US20100183726A1", "about": "“COMPOSITIONS AND METHODS FOR TREATING CANCER WITH DACARBAZINE NANOEMULSIONS” (priority 2006, published 2010)", "origin": "cited, not measured here", "key": {"Cloudman S91 cells": {"tested_on": "Cloudman S91 cells", "conditions": "100 μg/ml"}, "B16 cells": {"tested_on": "B16 cells", "conditions": "200 μg/ml"}, "melanoma B16F10 cells": {"tested_on": "melanoma B16F10 cells", "conditions": "150 mg/kg; 14 days after inoculation; p<0.01 versus untreated controls"}, "[1]": {"test": "not given", "remark": "listed apart in the source"}, "[2]": {"conditions": "dacarbazine alone, meta-analysis of 14 studies, 1167 patients"}}, "note": "Like-named read-outs stand apart in the source and are kept apart here.", "data": [{"compound": "NC(=O)c1nc[nH]c1N", "note": "[AIC, 5-aminoimidazol-me-4-carboxamide]", "values": [{"measurement": "time to maximal serum concentration", "setting": "after injection of dacarbazine", "value": 15, "unit": "min"}, {"measurement": "time at which detectable after intravenous injection of dacarbazine", "setting": "in vivo, iv", "value": 15, "unit": "min"}]}, {"compound": "CN(C)N=Nc1[nH]cnc1C(N)=O", "note": "[dacarbazine, 5-(3,3-dimethyl-1-triazeno)imidazole-4-carboxamide]", "values": [{"measurement": "increased survival time", "setting": "melanoma B16 cells; B16 cells implanted intraperitoneally", "value": 29, "unit": "%"}, {"measurement": "increased survival time", "setting": "melanoma B16 cells; B16 cells implanted subcutaneously", "value": 43, "unit": "%"}, {"measurement": "inhibition of tumor growth", "setting": "melanoma B16 cells; intraperitoneal injection", "value": "did not inhibit tumor growth"}, {"measurement": "highest induction of apoptosis", "setting": "Cloudman S91 cells", "value": 22.2, "unit": "%"}, {"measurement": "complete remission", "setting": "metastatic melanoma; 143 patients treated with dacarbazine alone", "value": 5, "unit": "%"}, {"measurement": "average response rates", "setting": "metastatic melanoma; contemporary trials", "value": "< 10", "unit": "%"}, {"measurement": "median progression-free survival", "setting": "metastatic melanoma; contemporary trials", "value": "≤ 2", "unit": "months"}, {"measurement": "average mean survival", "setting": "metastatic melanoma; [2]", "value": 8, "unit": "months"}, {"measurement": "average response rate", "setting": "metastatic melanoma; [2]", "value": 18.7, "unit": "%"}, {"measurement": "complete remission average rate", "setting": "metastatic melanoma; [2]", "value": 5.4, "unit": "%"}, {"measurement": "highest induction of apoptosis", "setting": "B16 cells", "value": 11, "unit": "%"}, {"measurement": "number of metastatic pulmonary nodules", "setting": "melanoma B16F10 cells", "value": "significantly decreased"}, {"measurement": "patients developing constitutional symptoms (nausea, vomiting, occasionally diarrhea)", "setting": "[1]; in vivo", "value": 90, "unit": "%"}, {"measurement": "cytopenia grade", "setting": "[1]; white cell and platelet counts after injection", "value": "WHO grade 1 or rarely grade 2"}, {"measurement": "T50% α value relative to typical dose", "setting": "higher doses (850-1980 mg/m^2)", "value": 3.5, "unit": "fold"}, {"measurement": "injected dose crossing the blood-brain barrier", "setting": "in vivo", "value": 13, "unit": "%"}, {"measurement": "protein binding", "setting": "in vivo", "value": "binds weakly to proteins"}, {"measurement": "secretion in breast milk", "setting": "in vivo", "value": "secreted in breast milk"}, {"measurement": "volume of distribution", "setting": "in vivo", "value": "exceeds the water volume of the body"}, {"measurement": "bioavailable fraction", "setting": "intravenously injected", "value": "50-60%"}, {"measurement": "fraction of an oral dose absorbed", "setting": "oral administration", "value": "14-23%"}, {"measurement": "renal clearance", "setting": "regardless of the dose injected", "value": "exceeds creatinine clearance"}]}]}
